Patent US4051253A, “Microbicidal nitrofuryl compounds” (Byk Gulden Lomberg Chemische Fabrik GmbH, priority 1974, dated 1977)

Columns and labels:
[1] = test system: Trichomonas foetus; experiment: Infection tests with Trichomonas foetus in mice; format: in vivo; conditions: for % of Animals Dying After Infection (Mean Value): stomach tube, 3 successive days, NMRI mice
[2] = in vivo; conditions: mouse
[3] = test system: Serratia marcescens strain HY/a 21

SMILES | % of Animals Dying After Infection (Mean Value) ([1]; 1.56 mg/kg) | % of Animals Dying After Infection (Mean Value) ([1]; 3.12 mg/kg) | % of Animals Dying After Infection (Mean Value) ([1]; 6.25 mg/kg) | % of Animals Dying After Infection (Mean Value) ([1]; 12 mg/kg) | % of Animals Dying After Infection (Mean Value) ([1]; 25 mg/kg) | animals survived / survival rate ([1]; dose of 6.25 mg/kg, mice infected with T. foetus) | activity against T. foetus compared with metronidazol (in words) ([1]; infected mice) | LD50 [2] | Mutants, Test [3] | Mutation frequency [3]
CCc1ccccc1C(=O)NN=CC=Cc1ccc([N+](=O)[O-])o1 [B, 2-[(o-ethylbenzoylhydrazono)propen-1-yl]-5-nitrofuran] | 86% | 62% | 46% | 6% | 0% | 54% | substantially better activity in mice infected with T. foetus | > 2000 mg/kg |  | 
O=C1CCO1 [β-propiolactone, reference compound] |  |  |  |  |  |  |  |  | 6.6 × 10^2 colonies/ml | 3.4 × 10^-6
